# Test results: patent US20260041095A1, “A PRESERVATION METHOD” (AnalytiCon Discovery - Zweigniederlassung der BRAIN Biotech …, priority 2022, published 2026)
# Assays:
# Assay type in all cases: cell-based
# Asaia siamensis SUN03 = test: Antimicrobial activity (MIC), Asaia siamensis SUN03; settings: potato dextrose broth pH 3.8, visual evaluation
# [1] = system: Bacillus subtilis ATCC 6633; test: Antimicrobial activity (MIC), Bacillus subtilis ATCC 6633; settings: ATCC6633, potato dextrose broth pH 3.8, visual evaluation, read-out: Minimal Inhibitory Concentration (MIC)
# Brettanomyces sp SUN08 = test: Antimicrobial activity (MIC), Brettanomyces sp SUN08; settings: potato dextrose broth pH 3.8, visual evaluation, read-out: Minimal Inhibitory Concentration (MIC)
# Byssochlamys nivea SUN10 = test: Antimicrobial activity (MIC), Byssochlamys nivea SUN10; settings: Paecilomyces niveus, potato dextrose broth pH 3.8, visual evaluation, read-out: Minimal Inhibitory Concentration (MIC)
# [2] = system: Candida parapsilosis SUN05; test: Antimicrobial activity (MIC), Candida parapsilosis SUN05; settings: Lodderomyces parapsilosis, potato dextrose broth pH 3.8, visual evaluation, read-out: Minimal Inhibitory Concentration (MIC)
# [3] = system: Clostridium sporogenes ATCC19404; test: Antimicrobial activity (MIC), Clostridium sporogenes ATCC19404; settings: potato dextrose broth pH 3.8, visual evaluation, read-out: Minimal Inhibitory Concentration (MIC)
# Procedure: Compounds are dissolved at a concentration of 20 mg/mL using 100% DMSO. • Preculture: yeast and bacteria are plated on potato dextrose agar, resuspended in potato dextrose broth and CFU via OD measurement determined; adjusting CFU of the strain in PDB pH 3.8 • Preculture: for mycel forming fungi spores were directly used after thawing of cryopreserved stocks of known titre • Final titre used for the assay: Yeast strains 5*10^3 CFU/ml, Bacteria 1*10^6 CFU/ml, Fungi (spores) 5*10^4 CFU/ml • Potato dextrose broth pH 3.8 was used as assay matrix • 500 ppm (0.05%) of the compounds were screened (final DMSO 2.5% (v/v)) • Volume: 100 μl in 96-well format • Positive controls: potassium sorbate, sodium benzoate & triclosan • 28° C. to 30° C., static incubation • Incubation time depending on spoilage organism between 2 and 8 days • Visual evaluation (per eye, for fungi with binocular magnification)
# [4] = system: Enterococcus faecalis ATCC 7080; test: Antimicrobial activity (MIC), Enterococcus faecalis ATCC 7080; settings: ATCC7080, potato dextrose broth pH 3.8, visual evaluation, read-out: Minimal Inhibitory Concentration (MIC)
# [5] = system: Gluconacetobacter liquefaciens DSM 5603; test: Antimicrobial activity (MIC), Gluconacetobacter liquefaciens DSM 5603; settings: DSM5603, potato dextrose broth pH 3.8, visual evaluation, read-out: Minimal Inhibitory Concentration (MIC)
# [6] = system: Leuconostoc lactis DSM 20202; test: Antimicrobial activity (MIC), Leuconostoc lactis DSM 20202; settings: DSM20202, potato dextrose broth pH 3.8, visual evaluation, read-out: Minimal Inhibitory Concentration (MIC)
# [7] = system: Neosartorya fischeri SUN09; test: Antimicrobial activity (MIC), Neosartorya fischeri SUN09; settings: Aspergillus fischeri, potato dextrose broth pH 3.8, visual evaluation, read-out: Minimal Inhibitory Concentration (MIC)
# Penicillium paneum SUN04 = test: Antimicrobial activity (MIC), Penicillium paneum SUN04; settings: potato dextrose broth pH 3.8, visual evaluation, read-out: Minimal Inhibitory Concentration (MIC)
# [8] = system: Saccharomyces cerevisiae SUN01; test: Antimicrobial activity (MIC), Saccharomyces cerevisiae SUN01; settings: potato dextrose broth pH 3.8, visual evaluation, read-out: Minimal Inhibitory Concentration (MIC)
# [9] = system: Saccharomyces cerevisiae SUN06; test: Antimicrobial activity (MIC), Saccharomyces cerevisiae SUN06; settings: potato dextrose broth pH 3.8, visual evaluation, read-out: Minimal Inhibitory Concentration (MIC)
# [10] = system: Zygosaccharomyces bailli SUN02; test: Antimicrobial activity (MIC), Zygosaccharomyces bailli SUN02; settings: potato dextrose broth pH 3.8, visual evaluation, read-out: Minimal Inhibitory Concentration (MIC)
# [11] = system: Zygosaccharomyces bailli SUN07; test: Antimicrobial activity (MIC), Zygosaccharomyces bailli SUN07; settings: potato dextrose broth pH 3.8, visual evaluation, read-out: Minimal Inhibitory Concentration (MIC)
# [12] = system: Alicyclobacillus acidoterrestris DSM 2498; test: Antimicrobial activity (MIC), Alicyclobacillus acidoterrestris DSM 2498; settings: DSM2498, potato dextrose broth pH 3.8, visual evaluation, read-out: Minimal Inhibitory Concentration (MIC)
# [13] = system: Aspergillus brasiliensis DSM 1988; test: Antimicrobial activity (MIC), Aspergillus brasiliensis DSM 1988; settings: DSM1988, potato dextrose broth pH 3.8, visual evaluation, read-out: Minimal Inhibitory Concentration (MIC)
# [14] = system: Bacillus licheniformis DSM 13; test: Antimicrobial activity (MIC), Bacillus licheniformis DSM 13; settings: DSM13, potato dextrose broth pH 3.8, visual evaluation, read-out: Minimal Inhibitory Concentration (MIC)
# [15] = system: Candida albicans ATCC10231; test: Antimicrobial activity (MIC), Candida albicans ATCC10231; settings: potato dextrose broth pH 3.8, visual evaluation, read-out: Minimal Inhibitory Concentration (MIC)
# [16] = system: Candida parapsilosis ATCC 20384; test: Antimicrobial activity (MIC), Candida parapsilosis ATCC 20384; settings: Lodderomyces parapsilosis, ATCC20384, potato dextrose broth pH 3.8, visual evaluation, read-out: Minimal Inhibitory Concentration (MIC)
# [17] = system: Clostridium perfringens DSM756; test: microbe, parasite or virus in culture; settings: DSM756, pH 3.8, read-out: Minimal Inhibitory Concentration (MIC)
# [18] = system: Corynebacterium xerosis DSM 20743; test: Antimicrobial activity (MIC), Corynebacterium xerosis DSM 20743; settings: DSM20743, potato dextrose broth pH 3.8, visual evaluation, read-out: Minimal Inhibitory Concentration (MIC)
# [19] = system: Dekkera naardenensis CBS 6115; test: Antimicrobial activity (MIC), Dekkera naardenensis CBS 6115; settings: Brettanomyces naardenensis, CBS6115, potato dextrose broth pH 3.8, visual evaluation, read-out: Minimal Inhibitory Concentration (MIC)
# [20] = system: Lactobacillus paracasei ssp. paracasei DSM 46331; test: Antimicrobial activity (MIC), Lactobacillus paracasei ssp. paracasei DSM 46331; settings: Lacticaseibacillus paracasei, DSM46331, potato dextrose broth pH 3.8, visual evaluation, read-out: Minimal Inhibitory Concentration (MIC)
# [21] = system: Leuconostoc mesenteroides DSM 20343; test: Antimicrobial activity (MIC), Leuconostoc mesenteroides DSM 20343; settings: DSM20343, potato dextrose broth pH 3.8, visual evaluation, read-out: Minimal Inhibitory Concentration (MIC)
# [22] = system: Malassezia furfur DSM 6170; test: Antimicrobial activity (MIC), Malassezia furfur DSM 6170; settings: DSM6170, potato dextrose broth pH 3.8, visual evaluation, read-out: Minimal Inhibitory Concentration (MIC)
# [23] = system: Penicillium expansum DSM 62841; test: Antimicrobial activity (MIC), Penicillium expansum DSM 62841; settings: DSM62841, potato dextrose broth pH 3.8, visual evaluation, read-out: Minimal Inhibitory Concentration (MIC)
# [24] = system: Saccharomyces cerevisiae DSM 2548; test: Antimicrobial activity (MIC), Saccharomyces cerevisiae DSM 2548; settings: DSM2548, potato dextrose broth pH 3.8, visual evaluation, read-out: Minimal Inhibitory Concentration (MIC)
# [25] = system: Yarrowia lipolytica DSM 70561; test: Antimicrobial activity (MIC), Yarrowia lipolytica DSM 70561; settings: DSM70561, potato dextrose broth pH 3.8, visual evaluation, read-out: Minimal Inhibitory Concentration (MIC)
# [26] = system: Zygosaccharomyces bailii DSM 70834; test: Antimicrobial activity (MIC), Zygosaccharomyces bailii DSM 70834; settings: DSM70834, potato dextrose broth pH 3.8, visual evaluation, read-out: Minimal Inhibitory Concentration (MIC)
# [27] = system: Zygosaccharomyces rouxii DSM 7525; test: Antimicrobial activity (MIC), Zygosaccharomyces rouxii DSM 7525; settings: DSM7525, potato dextrose broth pH 3.8, visual evaluation, read-out: Minimal Inhibitory Concentration (MIC)
compound,measurement,setting,value
O=C(O)CCCCCCCCCCCCCC(O)CO[C@@H]1O[C@H](COC(=O)O)[C@@H](O[C@@H]2O[C@H](CO)[C@@H](O)[C@H](O)[C@H]2OC(=O)CC(O)CCO)[C@H](O)[C@H]1O (stereo partly shown) [NP-018250],MIC,Asaia siamensis SUN03; read-out: Minimal Inhibitory Concentration (MIC),≤ 125 mg/L
same,MIC,[1],250 mg/L
same,MIC,Brettanomyces sp SUN08,125 mg/L
same,MIC,Byssochlamys nivea SUN10,125 mg/L
same,MIC,[2],125 mg/L
same,MIC,[3],250 mg/L
same,MIC,[4],250 mg/L
same,MIC,[5],250 mg/L
same,MIC,[6],250 mg/L
same,MIC,[7],125 mg/L
same,MIC,Penicillium paneum SUN04,125 mg/L
same,MIC,[8],125 mg/L
same,MIC,[9],125 mg/L
same,MIC,[10],125 mg/L
same,MIC,[11],125 mg/L
CCCCCC(O)CC(=O)O[C@H]1[C@H](O[C@H]2[C@H](O)[C@@H](O)[C@H](OCC(O)CCCCCCCCCCCCC(O)C(=O)O)O[C@@H]2COC(C)=O)O[C@H](CO)[C@@H](O)[C@@H]1O (stereo partly shown) [NP-018256],Minimal Inhibitory Concentration (MIC),Asaia siamensis SUN03,inact.
same,MIC,[12],240 mg/L
same,MIC,[13],240 mg/L
same,MIC,[14],240 mg/L
same,MIC,Brettanomyces sp SUN08,≤ 125 mg/L
same,MIC,Byssochlamys nivea SUN10,≤ 125 mg/L
same,MIC,[15],80 mg/L
same,MIC,[16],240 mg/L
same,MIC,[2],≤ 125 mg/L
same,MIC,[17],80 mg/L
same,MIC,[3],80 mg/L
same,MIC,[18],1200 mg/L
same,MIC,[19],80 mg/L
same,MIC,[20],240 mg/L
same,MIC,[6],240 mg/L
same,MIC,[21],240 mg/L
same,MIC,[22],80 mg/L
same,MIC,[7],≤ 125 mg/L
same,MIC,[23],240 mg/L
same,MIC,Penicillium paneum SUN04,≤ 125 mg/L
same,MIC,[24],240 mg/L
same,MIC,[8],≤ 125 mg/L
same,MIC,[9],≤ 125 mg/L
same,MIC,[25],240 mg/L
same,MIC,[26],80 mg/L
same,MIC,[10],≤ 125 mg/L
same,MIC,[11],500 mg/L
same,MIC,[27],80 mg/L
